Read-outs that look alike come from different tables or passages of the source. Numbered stars: 1 amine (or outer) side, 2 acyl side, 3 side chain; on linkers, the order of the positions; unused ones are H or OH. Bridge positions count the residues as written; N and C are the ends. Square brackets hold non-standard residues; d marks the D form. Peptide text beside a SMILES is read from it. N(2-Aminoethyl)Gly = O=C(CN(CCN[*:3])[*:1])[*:2]; CO = O=C([*:1])[*:2]; Nlys = NCCCCNCC(=O)O Bounds are passed on as bounds.

One assay concerns the target T1, α4β7-MAdCAM-1 Fc chimera (Homo sapiens, UniProt P13612+P26010).
T1 construct: purchased R&D Systems Co (Minneapolis, MN)
Description: ELISA solid-phase ligand-receptor binding, integrin α4β7 to MAdCAM-1 Fc chimera. On the procedure:
(§1) Recombinant human VCAM-1 and MadCAM-1 (3 mg/mL in phosphate-buffered saline containing divalent cations), were immobilized on the wells of a 96-well ELISA plate (Dynatech Immulon) by overnight incubation at 4 °C. After washing with HBSST (Hanks’ Balanced Salt solution containing calcium and magnesium and 0.05% Tween-20) the plates were blocked with 5% BSA in HBSST by incubation at 37 °C for 1 h. The plates were washed with HBSST, and recombinant human integrin α4β1 or α4β7 (3 mg/mL) was added in the presence or absence of competitor cyclic peptides, disintegrins, or monoclonal anti-integrin antibodies dissolved in HBSS containing 1% BSA. The plates were thereafter incubated at 30 °C for 3 h, as time-binding had reached a plateau, and then washed 3 times with HBSST. Bound integrins were quantitated using primary anti-integrin polyclonal and monoclonal antibodies at a concentration of 0.5 mg/mL in HBSST containing 1% BSA, and incubated at 37 °C for 1 h. The plates were washed 3 times with HBSST and secondary antibodies- alkaline phosphatase (AP) conjugated (Sigma Co.) were added at dilution 1:1000 and incubated at 37 °C for 1 h. Thereafter, the plates were washed 3 times with HBSST and twice with HBSS and the alkaline phosphatase substrate 4-nitrophenyl phosphate was added to the wells for 30 min. The plates were read using Tecan Spectrophotometer at 405 nm. The level of nonspecific binding was measured in each experiment by determining the level of binding to wells coated with BSA alone.

A further assay addresses T2, α4β1-VCAM-1 Fc chimera (Homo sapiens, UniProt P05556+P13612).
T2 construct: purchased R&D Systems Co (Minneapolis, MN)
Kind of assay: ELISA solid-phase ligand-receptor binding, integrin α4β1 to VCAM-1 Fc chimera. The procedure:
as §1

In assay [1] the target is T3, α4β1 (Jurkat lymphocytes-VCAM-1) (Homo sapiens, UniProt P05556+P13612).
T3 construct: host or cells: Jurkat (untreated or TNFα-treated)
Description: Adhesion of Jurkat lymphocytes to immobilized VCAM-1. The format is cell-based. The procedure: (§2) Cell adhesion assay was carried out as previously described[47] with minor modifications. The day before the experiment, each well was coated with VCAM-1 (3 mg/mL) immobilized on the 96-well plate in PBS by overnight incubation at 4 °C. Thereafter, nonspecific binding was blocked by incubating the wells with 1% (w/v) bovine serum albumin (BSA) in Hank’s Balanced Salt Solution (HBSS) containing 5 mM MgCl2 at room temperature for 1 h before use. The cells were labeled by incubation with 12.5 μM 5-chloromethylfluorescein diacetate (CMFDA) in HBSS without 1% BSA at 37 °C for 30 min. The labeled cells were then centrifuged at 1000 rpm and washed twice with HBSS containing 1% BSA to remove excess CMFDA. Labeled cells (about 1 × 10^5 cells/well) were plated on each well in the presence or absence of visabrons and incubated at 37 °C for 60 min. Unbound cells were removed by washing the wells three times with 1% (w/v) BSA in HBSS, and bound cells were lysed by the addition of 0.5% Triton X-100 (diluted in DDW). The fluorescence in each well was quantified with a SPECTRAFluor Plus plate reader (Tecan), at λex = 485 nm and λem = 530 nm. To determine the number of adhered cells from the fluorescence values, a standard curve was generated by serial dilution of known numbers of CMFDA-labeled cells. […]
(§3) Table S6. TMLD- linear peptides inhibition of adhesion of integrin expressing cells to the respective immobilized ligands a a The cells were incubated for 30 min at 37 °C with the cells (1 x 105) in the 96 -well plate, previously covered with extracellular matrix ligand, in 100 µL of HBSS containing calcium and magnesium. After being washed with the same buffer, the adhered cells were lysed by Triton X-100, and the plate was read using Tecan spectrofluorimeter. The inhibitory dose 50% (IC 50) values represent ing mean ± standard deviatio ns (n=6) were calculated from dose response curves. bJurkat cells,VCAM -1; c α9-SW480 overexpressing cells, VCAM-1; d α1-K562 overexpressing cells, collagen IV ;e α2-K562 overexpressing cells, collagen I; f K562 wild type

Another assay concerns the target T4, α1β1-collagen IV (Homo sapiens, UniProt P05556+P56199).
T4 construct: expressed in transfected cells; host or cells: K562 transfected with α1 integrin (gift of Dr. M. Hemler)
Kind of assay: Adhesion of α1-K562 overexpressor cells to immobilized collagen IV. The format is cell-based. The following applies: α1-K562 overexpressed cells; 30 min at 37 °C; read-out: IC50 α1β1-collagen IV. On the procedure:
as §2, §3

A further assay deals with T5, α2β1-collagen I (Homo sapiens, UniProt P05556+P17301).
T5 construct: expressed in transfected cells; host or cells: K562 transfected with α2 integrin (gift of Dr. M. Hemler)
Kind of assay: Adhesion of α2-K562 overexpressor cells to immobilized collagen I. The format is cell-based. The following applies: α2-K562 overexpressed cells; 30 min at 37 °C; read-out: IC50 α2β1-collagen I. On the procedure: as §2, §3

The next assay concerns the target T6, α5β1-fibronectin (Homo sapiens, UniProt P05556+P08648).
T6 construct: host or cells: K562 wild type
Kind of assay: Adhesion of wild-type K562 cells to immobilized fibronectin. The format is cell-based. The following applies: wild-type K562 (α5β1); 30 min at 37 °C; read-out: IC50 α5β1-fibronectin. The procedure:
as §2, §3

Another assay addresses α9β1-VCAM-1 Fc chimera (Homo sapiens, UniProt P05556+Q13797). Kind of assay: ELISA binding assay, α9β1 to VCAM-1 Fc chimera.
The mark [2] stands for this setting: Jurkat treated with TNF-α (10 ng/mL) for 24 h, read-out: IC50 Jurkat lymphocytes-VACAM-1 TNFα.
Where [3] appears, read: untreated Jurkat lymphocytes (α4β1), read-out: IC50 Jurkat lymphocytes-VACAM-1 control.

T4 sequence (P56199 29-1179): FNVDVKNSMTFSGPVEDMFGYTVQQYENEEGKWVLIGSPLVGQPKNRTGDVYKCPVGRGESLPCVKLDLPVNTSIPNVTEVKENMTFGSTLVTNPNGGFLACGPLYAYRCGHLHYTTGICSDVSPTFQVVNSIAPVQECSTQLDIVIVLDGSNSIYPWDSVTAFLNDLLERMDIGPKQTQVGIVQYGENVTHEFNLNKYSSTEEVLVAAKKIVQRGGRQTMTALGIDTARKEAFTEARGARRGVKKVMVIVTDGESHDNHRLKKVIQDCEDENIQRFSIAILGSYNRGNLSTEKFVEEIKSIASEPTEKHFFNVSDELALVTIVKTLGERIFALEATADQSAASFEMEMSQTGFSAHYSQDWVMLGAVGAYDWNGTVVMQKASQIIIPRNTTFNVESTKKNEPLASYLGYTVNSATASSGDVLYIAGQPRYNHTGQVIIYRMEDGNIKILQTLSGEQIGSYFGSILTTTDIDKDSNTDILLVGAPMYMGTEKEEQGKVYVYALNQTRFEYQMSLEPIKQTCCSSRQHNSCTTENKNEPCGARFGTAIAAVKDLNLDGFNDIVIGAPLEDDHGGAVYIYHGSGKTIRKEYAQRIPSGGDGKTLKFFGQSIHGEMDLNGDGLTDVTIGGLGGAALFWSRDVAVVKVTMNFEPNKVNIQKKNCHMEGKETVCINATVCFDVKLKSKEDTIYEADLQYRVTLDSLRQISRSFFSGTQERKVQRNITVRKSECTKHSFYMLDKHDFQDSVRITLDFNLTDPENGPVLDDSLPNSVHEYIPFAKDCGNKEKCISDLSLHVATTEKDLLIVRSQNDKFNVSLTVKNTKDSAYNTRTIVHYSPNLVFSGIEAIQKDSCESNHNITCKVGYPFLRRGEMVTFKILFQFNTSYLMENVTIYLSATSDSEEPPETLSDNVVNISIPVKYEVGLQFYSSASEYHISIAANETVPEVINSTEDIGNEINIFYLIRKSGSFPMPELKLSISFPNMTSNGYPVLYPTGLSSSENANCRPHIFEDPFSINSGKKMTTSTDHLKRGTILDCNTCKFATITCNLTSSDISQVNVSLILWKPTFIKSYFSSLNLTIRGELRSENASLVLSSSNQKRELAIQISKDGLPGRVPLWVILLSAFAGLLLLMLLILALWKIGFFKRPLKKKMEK
T4 sequence (P05556 21-798): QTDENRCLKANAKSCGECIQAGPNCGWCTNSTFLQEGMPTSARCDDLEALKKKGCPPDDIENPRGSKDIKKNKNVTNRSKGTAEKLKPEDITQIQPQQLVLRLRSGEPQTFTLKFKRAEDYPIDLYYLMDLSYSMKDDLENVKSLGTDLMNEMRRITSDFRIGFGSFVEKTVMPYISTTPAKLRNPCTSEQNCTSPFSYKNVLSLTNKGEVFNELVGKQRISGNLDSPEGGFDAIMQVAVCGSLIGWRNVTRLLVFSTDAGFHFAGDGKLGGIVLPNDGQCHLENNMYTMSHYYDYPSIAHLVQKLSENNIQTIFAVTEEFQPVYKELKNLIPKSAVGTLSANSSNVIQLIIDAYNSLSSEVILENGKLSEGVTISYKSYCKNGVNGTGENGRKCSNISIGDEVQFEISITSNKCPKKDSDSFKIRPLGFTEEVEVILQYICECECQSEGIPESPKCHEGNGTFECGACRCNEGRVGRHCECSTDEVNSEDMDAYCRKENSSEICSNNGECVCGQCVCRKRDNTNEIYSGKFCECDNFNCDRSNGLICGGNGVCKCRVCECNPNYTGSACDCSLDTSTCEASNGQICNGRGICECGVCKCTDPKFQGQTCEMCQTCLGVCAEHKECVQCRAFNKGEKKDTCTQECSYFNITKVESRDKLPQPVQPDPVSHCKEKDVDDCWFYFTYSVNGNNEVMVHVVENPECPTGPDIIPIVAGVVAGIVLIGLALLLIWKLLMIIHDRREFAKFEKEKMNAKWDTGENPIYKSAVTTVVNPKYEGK
Sequence of α9β1-VCAM-1 Fc chimera (Q13797 30-1035, change not shown): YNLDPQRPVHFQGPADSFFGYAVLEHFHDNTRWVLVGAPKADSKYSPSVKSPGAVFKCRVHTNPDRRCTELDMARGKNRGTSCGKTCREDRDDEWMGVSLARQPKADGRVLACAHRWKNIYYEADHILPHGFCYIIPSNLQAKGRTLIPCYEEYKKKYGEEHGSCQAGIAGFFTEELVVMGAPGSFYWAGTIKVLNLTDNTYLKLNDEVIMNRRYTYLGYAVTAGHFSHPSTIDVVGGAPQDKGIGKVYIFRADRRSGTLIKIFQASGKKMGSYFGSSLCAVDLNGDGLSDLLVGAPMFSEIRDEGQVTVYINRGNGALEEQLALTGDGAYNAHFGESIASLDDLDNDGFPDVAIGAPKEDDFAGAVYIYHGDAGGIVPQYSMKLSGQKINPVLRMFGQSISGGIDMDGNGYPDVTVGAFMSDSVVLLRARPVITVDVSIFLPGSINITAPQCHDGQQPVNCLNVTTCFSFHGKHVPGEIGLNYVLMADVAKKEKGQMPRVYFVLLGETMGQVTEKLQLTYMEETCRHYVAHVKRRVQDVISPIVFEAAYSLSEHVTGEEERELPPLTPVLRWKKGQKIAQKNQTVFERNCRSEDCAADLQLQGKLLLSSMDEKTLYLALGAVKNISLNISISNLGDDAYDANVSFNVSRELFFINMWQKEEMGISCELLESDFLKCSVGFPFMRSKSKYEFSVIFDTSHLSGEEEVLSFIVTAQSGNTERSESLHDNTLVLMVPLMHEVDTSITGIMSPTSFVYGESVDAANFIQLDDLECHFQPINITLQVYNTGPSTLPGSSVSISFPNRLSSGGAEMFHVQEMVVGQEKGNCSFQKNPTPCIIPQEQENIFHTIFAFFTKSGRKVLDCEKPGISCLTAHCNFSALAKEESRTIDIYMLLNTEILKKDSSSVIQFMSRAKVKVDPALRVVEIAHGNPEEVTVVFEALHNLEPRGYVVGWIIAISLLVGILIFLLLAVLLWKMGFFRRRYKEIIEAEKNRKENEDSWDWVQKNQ
Sequence of α9β1-VCAM-1 Fc chimera (P05556 21-798, change not shown): as the sequence (P05556 21-798) above
T6 sequence (P08648 42-894 limits assumed): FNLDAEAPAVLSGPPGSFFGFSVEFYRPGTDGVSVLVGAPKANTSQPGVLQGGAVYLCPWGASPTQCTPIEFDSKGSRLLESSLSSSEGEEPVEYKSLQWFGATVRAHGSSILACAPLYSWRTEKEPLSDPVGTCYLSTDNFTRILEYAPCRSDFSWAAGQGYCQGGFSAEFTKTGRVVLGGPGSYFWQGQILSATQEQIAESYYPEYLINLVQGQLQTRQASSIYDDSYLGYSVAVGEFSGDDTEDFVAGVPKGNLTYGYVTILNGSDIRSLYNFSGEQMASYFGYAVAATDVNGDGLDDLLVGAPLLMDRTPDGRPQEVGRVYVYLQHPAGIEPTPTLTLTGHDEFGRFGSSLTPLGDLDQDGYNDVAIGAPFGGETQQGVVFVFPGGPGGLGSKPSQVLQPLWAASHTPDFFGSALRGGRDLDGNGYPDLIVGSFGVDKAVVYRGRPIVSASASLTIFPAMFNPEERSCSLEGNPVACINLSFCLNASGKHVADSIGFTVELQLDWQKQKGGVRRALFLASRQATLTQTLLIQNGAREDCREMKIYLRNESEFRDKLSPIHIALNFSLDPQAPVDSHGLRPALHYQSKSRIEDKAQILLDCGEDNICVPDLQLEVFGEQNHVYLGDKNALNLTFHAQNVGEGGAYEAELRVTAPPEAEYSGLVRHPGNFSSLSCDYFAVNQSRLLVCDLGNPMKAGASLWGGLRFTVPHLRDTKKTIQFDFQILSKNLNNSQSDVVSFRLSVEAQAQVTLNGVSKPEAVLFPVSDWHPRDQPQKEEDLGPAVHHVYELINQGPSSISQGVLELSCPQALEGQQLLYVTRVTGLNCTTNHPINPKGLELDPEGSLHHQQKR
T6 sequence (P08648 895-1049 limits assumed): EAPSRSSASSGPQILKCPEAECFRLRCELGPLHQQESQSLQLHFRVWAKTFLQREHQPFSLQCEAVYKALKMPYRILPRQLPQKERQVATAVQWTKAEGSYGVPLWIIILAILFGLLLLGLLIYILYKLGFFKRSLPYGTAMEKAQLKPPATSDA
T6 sequence (P05556 21-798): as the sequence (P05556 21-798) above

`CSCC[C@@H]1NC(=O)[C@H]([C@@H](C)O)NC(=O)CN(C(=O)[C@@H](N)CCCCN)CCCCNC(=O)NCCCCN(CC(=O)N[C@@H](CC(C)C)C(N)=O)C(=O)[C@H](CC(=O)O)NC(=O)[C@H](CC(C)C)NC1=O` [visabron c (4–4)] (H-K[Nlys]TMLD[Nlys]L-NH2; linker 2-7 via CO): the IC50 on α4β7-MAdCAM-1 Fc chimera was over 500 µM; at α4β1-VCAM-1 Fc chimera it was 0.4 µM; in assay [1] (setting [2]) it was 0.4 µM; in assay [1] (setting [3]) it was 5 µM; on α1β1-collagen IV, over 10000 µM; at α2β1-collagen I, over 10000 µM. The values for the IC50 on α5β1-fibronectin and on α9β1-VCAM-1 Fc chimera were over 10000 µM and 0.4 µM, respectively.

Consider `CSCC[C@@H]1NC(=O)[C@H]([C@@H](C)O)NC(=O)CN(C(=O)[C@@H](N)CCCCN)CCNC(=O)NCCN(CC(=O)N[C@@H](CC(C)C)C(N)=O)C(=O)[C@H](CC(=O)O)NC(=O)[C@H](CC(C)C)NC1=O` [visabron c (2–2)] (H-K[N(2-Aminoethyl)Gly]TMLD[N(2-Aminoethyl)Gly]L-NH2; linker 2-7 via CO), for which the IC50 is over 500 µM at α4β7-MAdCAM-1 Fc chimera; 2.3 µM on α4β1-VCAM-1 Fc chimera; 0.5 µM in assay [1] (setting [2]); 7 µM in assay [1] (setting [3]); over 10000 µM at α1β1-collagen IV; over 10000 µM at α2β1-collagen I. Besides, the IC50 at α5β1-fibronectin is over 10000 µM; on α9β1-VCAM-1 Fc chimera it was 3.6 µM.

With “natalizumab: clinical-grade monoclonal antibody anti-α4β1 produced by Biogen Co. [reference compound]”, the IC50 was 0.015 µM in the assay with α4β7-MAdCAM-1 Fc chimera (ELISA binding assay, recombinant human MAdCAM-1 chimera, read-out: IC50 α4β7-MAdCAM-1 Fc chimera); 0.01 µM in the assay with α4β1-VCAM-1 Fc chimera (ELISA binding assay, recombinant human VCAM-1 chimera, read-out: IC50 α4β1-VCAM-1 Fc chimera); 0.002 µM in assay [1] (setting [2]); 0.005 µM in assay [1] (setting [3]); over 10000 µM with α1β1-collagen IV; over 10000 µM in the assay with α2β1-collagen I. In addition, the IC50 in the assay with α5β1-fibronectin was over 10000 µM; with α9β1-VCAM-1 Fc chimera (ELISA binding assay per footnote b, α9-B1LBC3 overexpressed cells named in footnote a, read-out: IC50 α9β1-VCAM-1 Fc chimera), 0.015 µM.
